Results published in patent US20130045991A1, “NEUROPROTECTIVE MODULATION OF NMDA RECEPTOR SUBTYPE ACTIVITIES” (THE UNIVERSITY OF BRITISH COLUMBIA, priority 2005, published 2013).

Tests used:
cortical neurons [1] = assay: NMDA-mediated excitotoxicity: neuronal apoptosis in cortical cultures; assay type: cell-based, rat; details: 50 μM NMDA plus 10 μM glycine 20 min, assayed 20 h after; APV 50 μM, Ro25-6981 0.5 μM, NVP-AAM077 0.4 μM
Procedure: (§1) Mature neurons (11-14 DIV) were used for experiments.
(§2) To visualize injured neurons, Hoechst-33342 (10 μg/ml) was added to the culture medium 20 h after treatments and incubated for 45 min at 37 °C. Images were taken with a Leica DMIRE2 fluorescence microscope. Quantitative assessment of neuronal apoptosis was performed 20 h following treatments using a Cell Death Detection […] Kit (Roche Applied Science). Absorbance readings were determined using a spectrophotometric microplate reader. Data analyses were carried out according to the manufacturer's instructions. Data are expressed as the difference in apoptosis relative to control and are expressed as a percentage.

synaptic NMDA receptors = assay: mEPSC recording, NMDA receptor-mediated component; assay type: cell-based, rat
[2] = tested on: AMPA subtype glutamate receptor; assay: mEPSC recording, fast AMPA receptor-mediated component; assay type: cell-based, rat; details: -60 mV, zero added Mg2+
[3] = tested on: middle cerebral artery occlusion (MCAo); assay: MCAo focal ischemic stroke model, post-ischemic treatment; assay type: in vivo, rat
Source text: In some clinical settings, it is desirable to implement therapy after the onset of neuronal injury, such as stroke or other ischemic events.
Transient cerebral focal ischemia was produced by middle cerebral artery occlusion (MCAo) as described (Aarts et al., 2002; Bederson et al., 1986; Longa et al., 1989). Briefly, male Sprague-Dawley rats (Charles River Laboratories) weighing ˜300 g were anesthetized and MCAo was achieved by introducing a 3-0 monofilament suture into the MCA via the internal carotid artery. Body temperature was maintained at 37.0±0.5° C., and blood pressure and blood gases were monitored during the experiments. Animals were sacrificed 24 h following MCAo onset. Cerebral infarction was analyzed using brain sections stained with hematoxylin and eosin (H & E) or 2,3,5-triphenyltetrazolium chloride (TTC). 10 min before the animals were sacrificed, two tests, the postural reflex test to examine upper body posture (Bederson et al., 1986) and the forelimb placing test to examine sensorimotor integration in forelimb placing responses to visual, tactile, and proprioceptive stimuli (De Ryck et al., 1989), were performed to grade neurological function on a scale of 0 to 12 (0=normal, 12=worst). In the pretreatment study, a single bolus of drugs (NR2A-specific antagonist NVP-AAM077 (2.4 mg/kg) or NR2B specific antagonist Ro 25-6981 (6 mg/kg) or vehicle (saline)) was infused intravenously 30 min before a 1-h MCAo. For post-treatment experiments, animals were subjected to a 1.5-h MCAo and drug treatments (glycine, 800 mg/kg; NVP-AAM077 and Ro 25-6981 at the same doses as in the pretreatment study) were then given via intraperitoneal injection (i.p.) 3 h after reperfusion (4.5 h after the onset of MCAo).
The activating effect on NR2A-containing receptors was mimicked with the application of the NMDA receptor co-agonist glycine in the presence of an […] NR2B antagonist. Glycine by itself potentiates the function of NMDA receptors that are activated by endogenously released glutamate from presynaptic terminals both in vitro and in vivo (Johnson et al., 1987; Lu et al., 2001; De et al., 2000).

cortical neurons [4] = assay: Staurosporine (STS)-induced neuronal apoptosis; assay type: cell-based, rat; details: NMDA 200 μM, 5 min, Ro 25-6981 0.5 μM present
Source text: In alternative aspects of the invention, we have achieved specific activation of NR2A-containing receptors using two different strategies. First, we examined the effect of selective activation of extrasynaptic NR2A-containing receptor activation on neuronal appopotosis induced by staurosporine (STS), a potent apoptosis inducer (Budd et al., 2000). […] The NMDA-induced neuronal protection was indeed mediated by NR2A-containing receptors as it was prevented by co-application of NVP-AAM077 (p<0.001 compared with STS alone).
Dissociated cultures of cortical neurons were prepared from 18-day Sprague-Dawley rat embryos as described previously (Mielke et al., 2005). To obtain mixed cortical cultures enriched with neurons, uridine (10 μM) and 5-Fluor-2′-deoxyuridine (10 μM) were added to the culture medium at 3 DIV and maintained for 48 h, to inhibit non-neuronal cell proliferation, before the cultures were shifted back to the normal culture medium. Mature neurons (11-14 DIV) were used for experiments. To induce neuronal apoptosis, cortical cultures were stimulated with NMDA (50 μM) and glycine (10 μM) for 20 min, or STS (100 nM) for 1 h in Mg2+-free extracellular solution (ECS) containing (mM): 25 HEPES acid, 140 NaCl, 33 glucose, 5.4 KCl and 1.3 CaCl2, with pH 7.35 and osmolarity 320-330 mOsm. […]
To visualize injured neurons, Hoechst-33342 (10 μg/ml) was added to the culture medium 20 h after treatments and incubated for 45 min at 37 °C. Images were taken with a Leica DMIRE2 fluorescence microscope. Quantitative assessment of neuronal apoptosis was performed 20 h following treatments using a Cell Death Detection ELISAPLUS Kit (Roche Applied Science). Absorbance readings were determined using a spectrophotometric microplate reader. […] Data are expressed as the difference in apoptosis relative to control and are expressed as a percentage.

[5] = tested on: NR1C and NR2B receptors over NR1C+NR2A receptors; details: cited from earlier work
permanent focal ischemia = details: in vivo; cited from earlier work
cortical neurons [6] = assay: Glycine pretreatment before NMDA-induced neuronal apoptosis; assay type: cell-based, rat
Procedure: as §1, §2

[7] = tested on: acute ischaemic stroke in the carotid artery territory; details: sublingual 1.0-2.0 g/day started within 6 h after onset; cited from earlier work

## N[C@@H](CCCP(=O)(O)O)C(=O)O [APV]
Cortical neurons [1]
  effect on NMDA-induced neuronal apoptosis/damage: fully blocked
Synaptic NMDA receptors; -60 mV, zero added Mg2+, APV 50 μM, Ro 25-6981 0.5 μM
  effect on slow NMDA receptor-mediated component of mEPSCs: fully blocked

## O=C1N=c2cc([N+](=O)[O-])c([N+](=O)[O-])cc2=NC1=O [DNQX, 6,7-dinitroquinoxaline-2,3-dione]
[2]
  effect on fast AMPA receptor-mediated component of mEPSCs: completely blocked

## C[C@]12N[C@H](Cc3ccccc31)c1ccccc12 [MK-801]
Synaptic NMDA receptors; MK-801 10 μM co-applied with bicuculline 50 μM, within 10 min
  blockade of synaptic NMDA receptors (APV-sensitive component of mEPSCs): complete blockade
[3]; co-administered with glycine 800 mg/kg 4.5 h after stroke onset
  effect of co-administration on the glycine effect (infarct volume reduction): virtually completely abolished
[3]; given 3 h after 1.5-h MCAo (4.5 h after stroke onset), MK801 1 mg/Kg, glycine 800 mg/Kg, Ro 25-6981 6 mg/Kg
  neuroprotection / total infarct volume compared with MCAo alone: did not provide any noticeable neuroprotection

## CN[C@H](CC(=O)O)C(=O)O [NMDA, N-methyl-D-aspartate]
Cortical neurons [4]; STS 100 nM, 1 h
  effect on STS-induced apoptosis: significantly reduced STS-induced apoptosis
Cortical neurons [4]; synaptic receptors blocked (MK-801 + bicuculline)
  neuronal apoptosis on its own: did not increase neuronal apoptosis on its own

## Cc1ccc(CC2(O)CCN(CCOc3ccc(O)cc3)CC2)cc1 [Ro 63-1908, 1-[2-(4-hydroxy-phenoxy)-ethyl]-4-(4-methyl-benzyl)-piperidin-4-ol]
[5]
  selectivity for the NR1C and NR2B receptors over NR1C+NR2A receptors: 20,000 fold
Permanent focal ischemia
  neuroprotective effect against cortical damage: dose-related neuroprotective effect

## NCC(=O)O [glycine, Glycine]
Cortical neurons [6]
  effect of pretreatment on NMDA-induced neuronal apoptosis: significantly reduced NMDA-induced neuronal apoptosis
[3]; rat, in vivo
  neuroprotection / total infarct volume compared with MCAo alone: remarkable reduction in total infarct volume
[7]
  clinical effects: favourable clinical effects
